# Article PMC10361207, “Cannabinoid and Opioid Receptor Affinity and Modulation of Cancer-Related Signaling Pathways of Machaeriols and Machaeridiols from Machaerium Pers” (Molecules, 2023)
# Where two headings read alike, the source gives them in different places.
# Key:
# E2F [1] = test system: E2F; set-up: method as in PMID 36235141; conditions: T98G glioblastoma multiforme cells; inducer PMA; cited from earlier work
# Notch [2] = test system: Notch; set-up: method as in PMID 36235141; conditions: T98G glioblastoma multiforme cells; inducer PMA; cited from earlier work
# Smad2/3 [3] = test system: Smad2/3; set-up: method as in PMID 36235141; conditions: T98G glioblastoma multiforme cells; inducer TGF-beta; cited from earlier work
# Wnt [4] = test system: Wnt; set-up: method as in PMID 36235141; conditions: T98G glioblastoma multiforme cells; inducer m-wnt3a; cited from earlier work
# AP-1 [5] = test system: AP-1; set-up: method as in PMID 36235141; conditions: T98G glioblastoma multiforme cells; inducer PMA; cited from earlier work
# Stat3 [6] = test system: Stat3; set-up: method as in PMID 36235141; conditions: T98G glioblastoma multiforme cells; inducer IL6; cited from earlier work
# Hedgehog [7] = test system: Hedgehog; set-up: method as in PMID 36235141; conditions: T98G glioblastoma multiforme cells; inducer PMA; cited from earlier work
# NF-κB [8] = test system: NF-κB; set-up: method as in PMID 36235141; conditions: T98G glioblastoma multiforme cells; inducer PMA; cited from earlier work
# Myc [9] = test system: Myc; set-up: method as in PMID 36235141; conditions: T98G glioblastoma multiforme cells; inducer PMA; cited from earlier work
# ETS [10] = test system: ETS; set-up: method as in PMID 36235141; conditions: T98G glioblastoma multiforme cells; inducer PMA; cited from earlier work
# FoxO = assay: Luciferase reporter assay, FoxO, HeLa; type: cell-based; conditions: Homo sapiens; HeLa cells; no inducer; dash: no activity detected; read-out: IC50, FoxO (None)
# Protocol: (§1) Hela cells (or T98G cells) from ATCC were plated in white opaque 384-well plates at a density of 4300 cells/well in 30 µL of growth medium (DMEM with 10% FBS and 1% Pen/Strep). The next day, the medium was aspirated and replaced with DMEM containing 1% FBS. The cells were transfected with respective plasmids using X-tremeGENE HP DNA transfection reagent (Roche). After 24 h of transfection, the test agents were added to the transfected cells, followed 30 min later by an inducing agent: interleukin 6 (IL-6) for Stat3, TGF-β for Smad, m-wnt3a for Wnt and PMA for AP-1, NF-κB, E2F, Myc, ETS, Notch and Hedgehog. No inducer was added for FoXO and pTK. After 4 h or 6 h of induction, the cells were lysed via the addition of the One-Glo luciferase assay system (Promega; Madison, WI). The light output was detected in a GloMax®-Multi+ Detection System with Instinct® Software (Promega E 8051). This luciferase assay determines if the test agent is able to inhibit the activation of cancer-related signaling pathways. In the case of FoxO, the enhanced luciferase activity via the test agent was assessed.
# [11] = test system: panel of transcription factors (cancer-related signaling pathways); assay: Luciferase reporter panel, summary over pathways, HeLa; type: cell-based; conditions: Homo sapiens; HeLa cells; read-out: IC50, span over signaling pathways
# Protocol: as §1
# Wnt [12] = assay: Luciferase reporter assay, Wnt, HeLa; type: cell-based; conditions: Homo sapiens; HeLa cells; inducer m-wnt3a; dash: not inhibited by more than 40% at 50 µmol/L
# Protocol: as §1
# NF-κB [13] = assay: Luciferase reporter assay, NF-κB, HeLa; type: cell-based; conditions: Homo sapiens; HeLa cells; inducer PMA; dash: not inhibited by more than 40% at 50 µmol/L
# Protocol: as §1
# Myc [14] = assay: Luciferase reporter assay, Myc, HeLa; type: cell-based; conditions: Homo sapiens; HeLa cells; inducer PMA; dash: not inhibited by more than 40% at 50 µmol/L
# Protocol: as §1
# Stat3 [15] = assay: Luciferase reporter assay, Stat3, HeLa; type: cell-based, human; conditions: Homo sapiens; HeLa cells; inducer IL6; dash: not inhibited by more than 40% at 50 µmol/L
# Protocol: as §1
# Hedgehog [16] = assay: Luciferase reporter assay, Hedgehog, HeLa; type: cell-based, human; conditions: Homo sapiens; HeLa cells; inducer PMA; dash: not inhibited by more than 40% at 50 µmol/L
# Protocol: as §1
# Notch [17] = assay: Luciferase reporter assay, Notch, HeLa; type: cell-based; conditions: Homo sapiens; HeLa cells; inducer PMA; dash: not inhibited by more than 40% at 50 µmol/L
# Protocol: as §1
# AP-1 [18] = assay: Luciferase reporter assay, AP-1, HeLa; type: cell-based, human
# Protocol: as §1
# Smad2/3 [19] = assay: Luciferase reporter assay, Smad2/3, HeLa; type: cell-based, human; conditions: Homo sapiens; HeLa cells; inducer TGF-beta; dash: not inhibited by more than 40% at 50 µmol/L
# Protocol: as §1
# ETS [20] = assay: Luciferase reporter assay, ETS, HeLa; type: cell-based, human; conditions: Homo sapiens; HeLa cells; inducer PMA; dash: not inhibited by more than 40% at 50 µmol/L
# Protocol: as §1
# E2F [21] = assay: Luciferase reporter assay, E2F, HeLa; type: cell-based, human
# Protocol: as §1
# [22] = HeLa cells, inducer PMA, dash: not inhibited by more than 40% at 50 µmol/L
structure (smiles),measurement,setting,value
C=C(C)[C@H]1CCC(C)=C[C@@H]1c1c(O)cc(O)cc1/C=C/c1ccccc1 [compound 12],IC50,E2F [1],4.5 µM
same,IC50,Notch [2],< 5 µM
same,IC50,Smad2/3 [3],3.5 µM
same,IC50,Wnt [4],12.1 µM
same,IC50,AP-1 [5],10.2 µM
same,IC50,Stat3 [6],4.9 µM
same,IC50,Hedgehog [7],7 µM
same,IC50,NF-κB [8],7.7 µM
same,IC50,Myc [9],5.7 µM
same,IC50,ETS [10],7.3 µM
CC(C)=CCC/C(C)=C/Cc1c(O)cc(O)cc1/C=C/c1ccccc1 [compound 13],IC50,E2F [1],4.4 µM
same,IC50,Notch [2],2.1 µM
same,IC50,Smad2/3 [3],2.2 µM
same,IC50,Wnt [4],9.1 µM
same,IC50,AP-1 [5],4.4 µM
same,IC50,Stat3 [6],4.3 µM
same,IC50,Hedgehog [7],8.3 µM
same,IC50,NF-κB [8],4.8 µM
same,IC50,Myc [9],1.9 µM
same,IC50,ETS [10],4.7 µM
"C=C(C)[C@@H]1CCC(C)=C[C@H]1c1c(O)cc(CCCCC)cc1O [compound 9, cannabidiol, reference compound]",IC50,FoxO,> 50 µM
same,IC50,[11],3 to 6.1 µM
same,IC50,Wnt [12],5.7 µM
same,IC50,NF-κB [13],3 µM
same,IC50,Myc [14],3.8 µM
same,IC50,Stat3 [15],5.9 µM
same,IC50,Hedgehog [16],6.1 µM
same,IC50,Notch [17],4.8 µM
same,"IC50, Ap-1 (PMA)",AP-1 [18]; [22],inactive
same,IC50,"AP-1 [18]; Homo sapiens, read-out: IC50, Ap-1 (PMA)",> 50 µM
same,IC50,Smad2/3 [19],4.1 µM
same,IC50,ETS [20],5.5 µM
same,"IC50, E2F (PMA)",E2F [21]; [22],inactive
same,IC50,"E2F [21]; Homo sapiens, HeLa, read-out: IC50, E2F (PMA)",> 50 µM
